According to PubChem BioAssay AID463203 (Broad Institute, 2010):
The source made the active and inactive calls.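 Rule for the calls: active = more than half of replicate measurements showing over 20% loss of kinase signal relative to plate controls; inconclusive = some but at most half of replicates over 20% loss; inactive = no replicate over 20% signal loss.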

The compounds below were run against Glycogen synthase kinase-3 alpha (Homo sapiens) (UniProt P49840) (assay: concentration-response blocking of human GSK3A – biochemical, luminescence, cell-free homogeneous, retest, dose response (AID 463203)). Conditions: GSK-3 alpha enzyme, ADP-Glo luminescence, 60 min.
Glycogen synthase kinase-3 alpha (Homo sapiens), sequence (P49840 whole entry, looked up): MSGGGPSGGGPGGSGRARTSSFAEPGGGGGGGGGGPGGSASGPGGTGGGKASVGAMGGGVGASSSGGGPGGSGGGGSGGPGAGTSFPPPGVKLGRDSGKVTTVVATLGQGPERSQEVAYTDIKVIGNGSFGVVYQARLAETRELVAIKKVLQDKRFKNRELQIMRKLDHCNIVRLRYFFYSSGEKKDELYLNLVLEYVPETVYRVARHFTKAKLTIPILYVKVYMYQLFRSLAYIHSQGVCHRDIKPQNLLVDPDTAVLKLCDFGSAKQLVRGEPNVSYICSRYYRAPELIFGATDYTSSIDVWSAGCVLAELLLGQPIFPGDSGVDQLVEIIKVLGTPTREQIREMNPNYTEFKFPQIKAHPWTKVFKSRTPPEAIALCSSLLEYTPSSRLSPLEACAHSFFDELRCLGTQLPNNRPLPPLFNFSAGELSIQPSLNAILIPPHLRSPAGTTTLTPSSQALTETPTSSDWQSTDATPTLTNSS
For `COc1cc(C2c3sc(=O)[nH]c3SC3C(=O)N(c4ccc(C)cc4)C(=O)C32)ccc1O` (stereo unspecified), the AC50 was > 30 µM (inactive). With `Cc1ccc(S(=O)(=O)Nc2ccc(O)c3cccnc23)cc1` the AC50 was > 30 µM (inactive). Work on `COc1cc(/C=N/NC(=O)c2nnn(-c3nonc3N)c2-c2cccs2)ccc1O` yielded an AC50 of 4.37 µM. With `O=C(CSCCc1ccccn1)Nc1ccccn1` the AC50 was > 30 µM (inactive). With `COc1cc(/C=N/NC(=O)c2cccc(C(=O)N/N=C/c3ccc(O)c(OC)c3)n2)ccc1O` the AC50 was > 30 µM (inactive). `CCCCn1c(O)c(C(C)=NCCCn2ccnc2)c(=O)[nH]c1=O` gave an AC50 of 11.1 µM. For `Cc1cc2c(C)c(C)c(=O)[nH]c2cc1N`, the AC50 was > 30 µM (inactive). In the case of `CCOc1ccc(Nc2nc(NCc3ccco3)nc(N)c2[N+](=O)[O-])cc1`, the AC50 is reported as > 30 µM (inactive). Work on `CC1=C(C(=O)OCc2ccc3c(c2)OCO3)C(c2cccc([N+](=O)[O-])c2)NC(=O)N1` (stereo unspecified) yielded an AC50 of 3.28 µM. For `CCN1CCN(c2nc(N(C)c3ccccc3)nc(N)c2[N+](=O)[O-])CC1`, the AC50 was > 30 µM (inactive). For `CCC(Sc1ccc2nnc(-c3cccnc3)n2n1)C(=O)O` (stereo unspecified), the AC50 was > 30 µM (inactive). For `Oc1ccc(/C=N/NC(=S)N/N=C/c2ccc(O)cc2)cc1`, the AC50 was 23.5 µM. With `NC(=O)c1ccsc1NC(=O)C1CCCCC1` the AC50 was > 30 µM (inactive). With `COc1cc(C2C(C#N)=C(N)Oc3n[nH]c(-c4cccs4)c32)cc(OC)c1O` (stereo unspecified) the AC50 was > 30 µM (inactive). With `COc1cc(/C=N/NC(=O)c2cccnc2)cc(Br)c1O` the AC50 was > 30 µM (inactive). `CC(=O)Nc1ccc(C2(c3ccc(NC(C)=O)cc3)NC(=O)c3ccccc32)cc1` was tested, and the AC50 was > 30 µM (inactive). For `Oc1ccc(-c2nc3ncccn3c2Nc2ccc3c(c2)OCO3)cc1`, the AC50 was 6.33 µM. For `CNC(=O)c1ccsc1NC(=O)C1CCCN1S(=O)(=O)c1cccs1` (stereo unspecified), the AC50 was 17.2 µM. In the case of `CCCOc1ccc(-c2c(C(=O)N/N=C(\C)c3ccncc3)nnn2-c2nonc2N)cc1`, the AC50 is reported as > 30 µM (inactive). With `O=C1NC(=Nc2ccccc2)S/C1=C\c1cccs1` the AC50 was > 30 µM (inactive). With `CCOC(=O)c1c(NC(=O)CN2C(=O)NC3(CCCCC3C)C2=O)sc(C)c1CC` (stereo unspecified) the AC50 was > 30 µM (inactive). `O=S(=O)(c1cccs1)N1CCN(c2ccnc3cc(Cl)ccc23)CC1` was tested, and the AC50 was > 30 µM (inactive). For `Cc1ccnc(SCC(=O)Nc2sc3c(c2C#N)CCCC3)n1`, the AC50 was > 30 µM (inactive). `O=C(CSc1ccc2nnc(-c3ccccc3)n2n1)N1CCCc2ccccc21` was tested, and the AC50 was > 30 µM (inactive). `Cc1cccc(NC(=O)c2sc3nc4c(c(-c5cccs5)c3c2N)CN(C)CC4)c1` was tested, and the AC50 was > 30 µM (inactive). With `Nc1nc(Nc2ccc(Cl)cc2)n[nH]1` the AC50 was > 30 µM (inactive). For `CCOC(=O)C1CCCN(Cc2sccc2C)C1` (stereo unspecified), the AC50 was > 30 µM (inactive). In the case of `O=C(Nc1cccc(-c2nc3cccnc3s2)c1)c1cccnc1Cl`, the AC50 is reported as 8.59 µM. With `COC(=O)[C@@H](NC(=O)NCc1ccccc1F)C(C)C` the AC50 was > 30 µM (inactive). With `CC1(C)CC(=O)C2=C(C1)Nc1nc(SCCN3CCOCC3)[nH]c(=O)c1C2c1cccs1` (stereo unspecified) the AC50 was > 30 µM (inactive). `Cc1ccc(C(=O)N/C(=C/c2ccc(-c3cccc([N+](=O)[O-])c3)o2)C(=O)NC(C)C)cc1` was tested, and the AC50 was > 30 µM (inactive). With `O=Cc1cn(-c2ccccc2)nc1-c1ccc2c(c1)OCCO2` the AC50 was > 30 µM (inactive). For `Clc1ccc(C2=Nn3c(nnc3-c3cccs3)SC2)cc1`, the AC50 was > 30 µM (inactive). For `CN(C)Cc1c(C(=O)N/N=C/C=C/c2ccccc2)nnn1-c1nonc1N`, the AC50 was 30 µM. With `COc1ccc2nc(C)cc(N3CCN(S(=O)(=O)c4ccccc4F)CC3)c2c1` the AC50 was 8.27 µM. `NC(=O)c1c(NC(=O)CN2C(=O)NC(Cc3ccccc3)C2=O)sc2c1CCC2` (stereo unspecified) showed an AC50 of 20.3 µM. Work on `CNS(=O)(=O)c1cccc(C(=O)OCC(=O)Nc2ccc(Cl)cn2)c1` yielded an AC50 of 6.77 µM. `NC(=O)c1sc2nc3c(c(-c4ccccc4)c2c1N)CCC3` was tested, and the AC50 was 13.9 µM. `Cc1ccc(-n2cnc(N)c2C(=O)c2cccc([N+](=O)[O-])c2)cc1` was tested, and the AC50 was 10.8 µM. `O=C(NC1CCCC1)c1cccc(NC(=O)c2ccco2)c1` was tested, and the AC50 was > 30 µM (inactive). `CCOc1cc(/C=C2\SC(N)=NC2=O)ccc1O` gave an AC50 of 22.9 µM. In the case of `CN1/C(=C/C=C(C#N)C#N)C(C)(C)c2ccccc21`, the AC50 is reported as > 30 µM (inactive). `CCOC(=O)N1CCc2c(sc3nc4n(c(=O)c23)N=C(c2ccc(OC)cc2)CS4)C1` was tested, and the AC50 was > 30 µM (inactive). In the case of `Cc1cc(C)c(/C=N/NC(=O)c2nnn(-c3nonc3N)c2CN2CCC(C)CC2)c(C)c1`, the AC50 is reported as > 30 µM (inactive). For `O=C(CCSc1nc(-c2ccco2)cc(C(F)(F)F)n1)NCc1cccs1`, the AC50 was > 30 µM (inactive). Compound `O=c1[nH]nc(SCc2ccccc2Cl)n1-c1ccc2c(c1)OCCO2` has an AC50 of 7.11 µM. In the case of `CCOC(=O)N1CCC(N2CCN(S(=O)(=O)c3ccc(OC)cc3)CC2)CC1`, the AC50 is reported as > 30 µM (inactive). `Cc1ccc(/C=N/NC(=O)c2nnn(-c3nonc3N)c2CN(C)C2CCCCC2)cc1` was tested, and the AC50 was > 30 µM (inactive). In the case of `Cc1ccc(CSc2nnc(SCC(=O)N/N=C/c3ccc(C(=O)O)cc3)s2)cc1`, the AC50 is reported as > 30 µM (inactive). For `COc1ccc(-c2cc(C(=O)N3CCN(c4ccccc4OC)CC3)no2)cc1`, the AC50 was > 30 µM (inactive). For `CCOC(=O)c1c2c(n(C)c1C)C(=O)C(=O)c1ccc(Br)cc1-2`, the AC50 was 15 µM. With `O=C1OCCC1Sc1nnc(-c2ccc3c(c2)OCO3)o1` (stereo unspecified) the AC50 was 25.9 µM. `O=C(Nc1cccc(C(=O)N2CCOCC2)c1)c1cccnc1` was tested, and the AC50 was > 30 µM (inactive). For `COc1ccc2cc(C(N)=O)c(=Nc3ccc(C)cc3)oc2c1`, the AC50 was > 30 µM (inactive). With `O=C(CSc1cccs1)Nc1ccc(Cl)cc1` the AC50 was > 30 µM (inactive). For `Cc1nc2ncnn2c(C)c1Cc1c(Cl)cccc1Cl`, the AC50 was > 30 µM (inactive). In the case of `C#CCSc1nnc(-c2ccc(O)cc2)o1`, the AC50 is reported as 25.5 µM. In the case of `Cc1ccc2cc(C#N)c(N3CCCN(C(=S)NCCCN(C)C)CC3)nc2c1`, the AC50 is reported as > 30 µM (inactive). For `Clc1ccccc1/C=N/Nc1cc(N2CCOCC2)ncn1`, the AC50 was > 30 µM (inactive). With `COCc1cc(C)nc(OCC(=O)N/N=C/c2ccc(O)cc2)c1C#N` the AC50 was 13.3 µM. `CC1CCC[C@H](O)CCCCCc2cc(O)cc(O)c2C(=O)O1` (stereo partly specified) was tested, and the AC50 was > 30 µM (inactive). For `O=C(NCCCN1CCN(CCCNC(=O)c2ccc3c(c2)OCO3)CC1)c1ccc2c(c1)OCO2`, the AC50 was 27.7 µM. `Cc1ccc2c(c1N)C(=O)c1ccccc1C2=O` was tested, and the AC50 was > 30 µM (inactive). Compound `CCOc1cccc(-c2c(C(=O)N/N=C/c3ccncc3)nnn2-c2nonc2N)c1` has an AC50 of 2.13 µM. For `COC(=O)c1cc2cc(Cl)ccc2nc1SC`, the AC50 was > 30 µM (inactive). In the case of `COc1cc(/C=N/c2oc(C)c(C)c2C#N)cc(Br)c1O`, the AC50 is reported as > 30 µM (inactive). With `CCn1ncc([N+](=O)[O-])c1C(=O)N1CCCC1` the AC50 was > 30 µM (inactive). Work on `O=C(O)c1ccc(N=c2oc3cc(O)ccc3cc2C(=O)NCc2ccccc2)cc1` yielded an AC50 of 5.83 µM. `CC(=O)Nc1ncc(Cc2cccc(Cl)c2Cl)s1` was tested, and the AC50 was > 30 µM (inactive). For `COc1ccc(OC)c(C(=O)c2c(C)oc3cc(Br)c(O)c(CN(C)C)c23)c1`, the AC50 was > 30 µM (inactive). `O=C1CC(c2cccs2)CC2=C1C(c1ccccc1)n1ncnc1N2` (stereo unspecified) was tested, and the AC50 was > 30 µM (inactive). `COc1ccc(-c2cc(C(=O)N3CCN(c4ccccc4)CC3)no2)cc1` was tested, and the AC50 was > 30 µM (inactive). `Clc1ccc(-c2noc(COc3ccccc3)n2)cc1` was tested, and the AC50 was > 30 µM (inactive). `CCSc1ncnc2c1sc1nc3c(cc12)COC(C)(C)C3` was tested, and the AC50 was > 30 µM (inactive). `O=C(O)c1cc(-c2ccc(/C=N/N3C(=O)C4C5C=CC(C6CC56)C4C3=O)o2)ccc1Cl` (stereo unspecified) was tested, and the AC50 was > 30 µM (inactive). With `N#CC1=C2SCN(Cc3ccco3)CN2C(=O)CC1c1c(F)cccc1Cl` (stereo unspecified) the AC50 was > 30 µM (inactive). With `Cc1cccc(C(=O)O/N=C(\N)c2cccc([N+](=O)[O-])c2)c1` the AC50 was > 30 µM (inactive). In the case of `CCOC(=O)c1[nH]c2c(c1-c1ccccc1)C(=O)CC(c1ccccc1)C2` (stereo unspecified), the AC50 is reported as > 30 µM (inactive). `Cc1ccc(OCC(=O)N2CCN(c3nnc(-c4ccccc4)c4ccccc34)CC2)cc1` was tested, and the AC50 was > 30 µM (inactive). With `CCCOc1cc2c(C#N)c(N3CCCC3)nc(N)c2c(N)n1` the AC50 was > 30 µM (inactive). With `O=C(CSc1ccc2nnc(-c3ccccn3)n2n1)N1CCN(c2ccccc2)CC1` the AC50 was > 30 µM (inactive). In the case of `COC1OC(COC(=O)c2ccccc2)C(OC(=O)c2ccccc2)C1OC(=O)c1ccccc1` (stereo unspecified), the AC50 is reported as > 30 µM (inactive). With `CCc1cc2c3c(c(=O)oc2cc1O)CCCC3` the AC50 was > 30 µM (inactive). In the case of `O=C(c1cccnc1NCc1ccccc1)N1CCOCC1`, the AC50 is reported as > 30 µM (inactive). In the case of `COc1ccc2c(c1)C(SCC(=O)NCc1ccccc1)CC(C)(C)O2` (stereo unspecified), the AC50 is reported as > 30 µM (inactive). With `CC(OC(=O)Cc1c[nH]c2ccccc12)C(=O)N(C)c1ccccc1` (stereo unspecified) the AC50 was > 30 µM (inactive). Compound `N#Cc1c(N)n(CCNC(=O)c2cccs2)c2nc3ccccc3nc12` has an AC50 of 25.7 µM. `Cc1cc(N2CCN(c3ccccc3)CC2)n2cc(-c3ccccc3)nc2n1` was tested, and the AC50 was > 30 µM (inactive). In the case of `O=c1cc(-c2ccccc2)oc2ccccc12`, the AC50 is reported as > 30 µM (inactive). `C/C(=N\NC(=O)c1nnn(-c2nonc2N)c1-c1cccs1)c1ccncc1` gave an AC50 of 1.02 µM. In the case of `CCc1ccc(C2CC(c3ccccc3Cl)Nc3nc(N)nn32)cc1` (stereo unspecified), the AC50 is reported as > 30 µM (inactive). With `O=C(OC1CO[C@H]2O[C@@H]1[C@H](OC(=O)c1ccccc1)[C@H]2OC(=O)c1ccccc1)c1ccccc1` (stereo partly specified) the AC50 was > 30 µM (inactive). For `CN1/C(=C\C=C\C2=[N+](C)c3ccc4ccccc4c3C2(C)C)C(C)(C)c2ccccc21`, the AC50 was 10.3 µM. For `COC(=O)c1c(NC(=O)CN2C(=O)NC3(CCCCC3C)C2=O)sc2c1CCC2` (stereo unspecified), the AC50 was > 30 µM (inactive). `CCCCN(CCCC)S(=O)(=O)c1ccc2oc(C(=O)N3CCOCC3)c(C)c2c1` was tested, and the AC50 was > 30 µM (inactive). For `CNC(=O)CSc1nnc(-c2ccco2)n1-c1cccc(OC)c1`, the AC50 was > 30 µM (inactive). `O=C(c1ccc2c3n(nc2c1)-c1ccc(Cl)cc1CO3)N1CCCCC1` was tested, and the AC50 was > 30 µM (inactive). `CN1CCN(c2nc(NCc3ccco3)nc(N)c2[N+](=O)[O-])CC1` was tested, and the AC50 was > 30 µM (inactive). In the case of `Cc1ccc(CNc2ccc([N+](=O)[O-])cc2C(N)=O)cc1`, the AC50 is reported as > 30 µM (inactive). In the case of `CCOc1ccc2nnc(-c3ccc(Br)cc3)n2n1`, the AC50 is reported as > 30 µM (inactive). In the case of `C[C@H](CO)N1C[C@H](C)[C@@H](CN(C)S(=O)(=O)c2cccs2)Oc2c(NS(=O)(=O)c3ccc(F)cc3)cccc2C1=O`, the AC50 is reported as > 30 µM (inactive).
